Source: PMC12234328, “A naphthalimide derivative exerts potent antiplatelet and antithrombotic activities without a bleeding tendency” (Frontiers in Pharmacology, 2025)
Where two headings read alike, the source gives them in different places.

What was measured:
[1] = tested on: thrombus formation in mesenteric venules; test: Fluorescein sodium-mediated thrombus formation in mesenteric microvessels of mice; format: in vivo; conditions: 20 mg/kg i.v., positive control, n = 6, mean ± SEM
Experimental: Male ICR mice (weighing 20–25 g and aged 5–6 weeks) were purchased from BioLasco (Taipei, Taiwan). The animal use protocol for this project was approved by the Affidavit of Approval of Animal Use Protocol–Taipei Medical University (LAC-2020–0074). All animal experiments were conducted in accordance with the Guide for the Care and Use of Laboratory Animals, Eighth Edition (2011).
The mice were anesthetized with an oxygen–air mixture containing 3% isoflurane at a gas flow rate of 1.5–2 L/min. A bolus dose (bolus volume: 20 μL) of compound 6 (0.3 mg/kg, 0.6 mg/kg, or 1.2 mg/kg), DMSO (solvent control; 1.1 g/kg), or aspirin (20 mg/kg; positive control) was intravenously administered through the tail vein before the administering sodium fluorescein (15 mg/kg). The small intestinal segments were placed on a transparent culture dish, and the mesenteric vessels were observed under a microscope. Venules (20–30 μm) were selected and irradiated with light (wavelength <520 nm) to induce endothelial damage, causing thrombus formation and subsequent vessel occlusion. The time required to occlude a microvessel was recorded ([Lin et al., 2013]). A formula for dose translation based on the […] was used to calculate the appropriate dose for use in the mice ([Reagan-Shaw et al., 2008]). [Reagan-Shaw et al. (2008)] reported that the animal dose should not be extrapolated to a human equivalent dose (HED) by a simple conversion based on body weight. […] The formula for dose translation based on BSA is as follows: HED (mg/kg) = Animal dose (mg/kg) multiply by Animal Km/Human Km. Mouse Km is 3 and Human Km is 37.
FIGURE 3 Effects of compound 6 on thrombosis and hemostasis in mice. Mice were treated with compound 6 (0.3, 0.6, or 1.2 mg/kg), DMSO (solvent control), or aspirin (20 mg/kg; positive control) via intravenous route for 10 min. (A) The microthrombus formation (arrows) in mesenteric venules. Scale bar = 30 μm. […] Each point on the plot indicates a mouse (n = 6). Data (A,B) are presented as means ± SEM (n = 6). *p < 0.05 and ***p < 0.001 compared with the DMSO group.

[2] = tested on: thrombus formation in mesenteric venules; set-up: method as in Shih et al., 2021; conditions: mice, ref Shih et al., 2021, cited from earlier work
[3] = tested on: human platelet suspensions stimulated with U46619; set-up: method as in Shih et al., 2021; conditions: high concentrations; ref Shih et al., 2021; cited from earlier work
recombinant human GPVI = molecular target: T1, recombinant human GPVI (Homo sapiens, UniProt Q9HCN6); test: Surface plasmon resonance binding assay (OpenSPR); conditions: his-tagged recombinant GPVI on NTA chip, compound at 0.1 and 1 μM; read-out: KD (equilibrium dissociation constant)
T1 sequence (Q9HCN6 21-267 limits assumed): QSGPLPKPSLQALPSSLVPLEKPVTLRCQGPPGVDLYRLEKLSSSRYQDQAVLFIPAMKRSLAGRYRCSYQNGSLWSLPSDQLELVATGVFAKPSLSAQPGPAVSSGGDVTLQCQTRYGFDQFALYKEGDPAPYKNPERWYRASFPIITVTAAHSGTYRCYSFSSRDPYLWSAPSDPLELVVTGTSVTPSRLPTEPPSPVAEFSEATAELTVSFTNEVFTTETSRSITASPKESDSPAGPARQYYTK
Experimental: Surface plasmon resonance (SPR) analysis was performed using an OpenSPR instrument (Nicoya, Kitchener, Canada). A nitrilotriacetic acid (NTA) sensor chip was installed in the OpenSPR instrument. Running buffer (phosphate-buffered saline) was pumped at the maximum flow rate, and 80% isopropanol was injected to remove any bubbles. Subsequently, 200 μL of a 200 mM imidazole solution was injected to prime the sensor surface. After rinsing the chip with running buffer, 200 μL of a 40 mM NiCl2 solution was used to activate the NTA chip. After 5 min of interaction time, his-tagged recombinant GPVI proteins were bound to the NTA chip by perfusing the GPVI protein solution at a flow rate of 20 μL/min. Solutions of compound 5 or compound 6 (0.1 and 1 μM) were then injected. The equilibrium dissociation constant (KD) was determined using the OpenSPR system (Nicoya).
An SPR binding assay was performed. First, recombinant human GPVI was coated on the NTA sensor chip. Solutions of compound 5 and compound 6 (0.1 and 1 μM) were then perfused on the chip, and the KD was determined using the OpenSPR system (Nicoya Lifesciences).
FIGURE 7 Direct binding of compound 6 on GPVI. […] Equilibrium dissociation constant (KD) were determined using the OpenSPR system. […]

[4] = tested on: tail bleeding (hemostasis); set-up: method as in Shih et al., 2021; conditions: ref Shih et al., 2021; cited from earlier work
[5] = tested on: human platelet suspensions stimulated with collagen; set-up: method as in Shih et al., 2021; conditions: human platelets; ref Shih et al., 2021; read-out: IC50, collagen-induced platelet aggregation; cited from earlier work
[6] = tested on: human platelet suspensions stimulated with thrombin; set-up: method as in Shih et al., 2021; conditions: high concentrations; ref Shih et al., 2021; cited from earlier work

Structure (SMILES) | Occlusion time [1] [s] | Thrombus formation ([2]; 1.2 mg/kg) | Thrombus formation ([2]; 2.3 mg/kg) | Effect on U46619-induced platelet aggregation [3] | Kd (recombinant human GPVI) [µM] | Bleeding tendency [4] | IC50 [5] [µM] | Effect on thrombin-induced platelet aggregation [6]
CC(=O)Oc1ccccc1C(=O)O [aspirin, reference compound] | 492.2 ± 31.9 | – | – | – | – | – | – | –
CN(C)CCN1C(=O)c2cccc3c(NCCNC(=O)c4ccccn4)ccc(c23)C1=O [compound 5] | – | not | inhibits thrombus formation | can block | 0.3 | demonstrated a bleeding tendency | 6.5 | can block
